Assay results from ChEMBL document CHEMBL1201862, “PubChem BioAssay data set” (2004).
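Assay format: 96-well plates, 48-hour exposure. GI50 is the concentration that inhibits growth by half.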 Calls of active or inactive are those of the source. No stated cut-off is given here; in the data, active = GI50 up to about 1.1 µM and inactive = higher.

Experiments:
Test in all cases: NCI anticancer screen, dose series, 48 h
A549 = tested on: A549
CCRF-CEM = tested on: CCRF-CEM
DMS-273 = tested on: DMS-273
HCT-15 = tested on: HCT-15
K562 = tested on: K562
MOLT-4 = tested on: MOLT-4
NCI-H460 = tested on: NCI-H460
NCI-H522 = tested on: NCI-H522
OVCAR-8 = tested on: OVCAR-8
SK-MEL-2 = tested on: SK-MEL-2
SN12C = tested on: SN12C
TK-10 = tested on: TK-10
A498 = tested on: A498
BT-549 = tested on: BT-549
MCF7 = tested on: MCF7
MDA-N = tested on: MDA-N
Malme-3M = tested on: Malme-3M
NCI/ADR-RES = tested on: NCI/ADR-RES
SK-OV-3 = tested on: SK-OV-3
T47D = tested on: T47D

## COc1ccc2cc1Oc1ccc(cc1)CC1c3cc4c(cc3CCN1C)Oc1c(OC)cc3c(c1O4)C(C2)N(C)CC3 (centres undefined)
A549
  GI50: 4.71 µM (inactive)
CCRF-CEM
  GI50: 1.32 µM (inactive)
DMS-273
  GI50: 1.63 µM (inactive)
HCT-15
  GI50: 2.42 µM
K562
  GI50: 1.75 µM (inactive)
MOLT-4
  GI50: 1.44 µM (inactive)
NCI-H460
  GI50: 1.76 µM (inactive)
NCI-H522
  GI50: 2.11 µM (inactive)
OVCAR-8
  GI50: 2.12 µM (inactive)
SK-MEL-2
  GI50: 2.8 µM (inactive)
SN12C
  GI50: 1.94 µM (inactive)
TK-10
  GI50: 15.6 µM (inactive)

## N#Cc1c(Cl)cc(C#N)n2c1nc1ccccc12
A498
  GI50: 24.5 µM (inactive)
A549
  GI50: 15 µM (inactive)
BT-549
  GI50: 6.12 µM (inactive)
CCRF-CEM
  GI50: 1.3 µM (inactive)
HCT-15
  GI50: 6.07 µM
K562
  GI50: 3.03 µM (inactive)
MCF7
  GI50: 9.2 µM (inactive)
MDA-N
  GI50: 10.6 µM (inactive)
MOLT-4
  GI50: 2.3 µM (inactive)
Malme-3M
  GI50: 5.35 µM (inactive)
NCI-H460
  GI50: 14.9 µM (inactive)
NCI-H522
  GI50: 2.42 µM (inactive)
NCI/ADR-RES
  GI50: 15.1 µM (inactive)
OVCAR-8
  GI50: 5.92 µM (inactive)
SK-MEL-2
  GI50: 17 µM (inactive)
SK-OV-3
  GI50: 21.9 µM (inactive)
SN12C
  GI50: 19.4 µM (inactive)
T47D
  GI50: 3.12 µM (inactive)
TK-10
  GI50: 13.2 µM (inactive)

## C#C[C@]1(O)CC[C@H]2[C@@H]3CCC4=C/C(=N/CCOC(=O)c5cccc6c(=O)c7ccccc7[nH]c56)CC[C@@H]4[C@H]3CC[C@@]21C
A498
  GI50: 58.6 µM (inactive)
A549
  GI50: 41.7 µM (inactive)
BT-549
  GI50: 32.3 µM (inactive)
CCRF-CEM
  GI50: 35.7 µM (inactive)
HCT-15
  GI50: 45 µM
K562
  GI50: 36.4 µM (inactive)
MCF7
  GI50: 26.1 µM (inactive)
MDA-N
  GI50: 50.7 µM (inactive)
MOLT-4
  GI50: 25.9 µM (inactive)
Malme-3M
  GI50: 34.6 µM (inactive)
NCI-H460
  GI50: 32.7 µM (inactive)
NCI-H522
  GI50: 31.4 µM (inactive)
NCI/ADR-RES
  GI50: 40.9 µM (inactive)
OVCAR-8
  GI50: 21 µM (inactive)
SK-MEL-2
  GI50: 30.1 µM (inactive)
SK-OV-3
  GI50: 51.5 µM (inactive)
SN12C
  GI50: 74.5 µM (inactive)
T47D
  GI50: 20.5 µM (inactive)
TK-10
  GI50: 45.8 µM (inactive)

## Cc1cc2c(cc1-c1cc3c(cc1C)C(C(C)C)=C(O)C(=O)/C3=C\NCC1CCCN3CCCCC13)/C(=C/NCC1CCCN3CCCCC13)C(=O)C(O)=C2C(C)C (centres undefined)
A498
  GI50: 23.1 µM (inactive)
A549
  GI50: 4.93 µM (inactive)
BT-549
  GI50: 15.9 µM (inactive)
CCRF-CEM
  GI50: 2.83 µM (inactive)
HCT-15
  GI50: 5.33 µM
K562
  GI50: 12.2 µM (inactive)
MCF7
  GI50: 12.4 µM (inactive)
MDA-N
  GI50: 5.78 µM (inactive)
MOLT-4
  GI50: 3.52 µM (inactive)
Malme-3M
  GI50: 10.3 µM (inactive)
NCI-H460
  GI50: 5.14 µM (inactive)
NCI-H522
  GI50: 2.84 µM (inactive)
NCI/ADR-RES
  GI50: 7.36 µM (inactive)
OVCAR-8
  GI50: 3.61 µM (inactive)
SK-MEL-2
  GI50: 8.02 µM (inactive)
SK-OV-3
  GI50: 4 µM (inactive)
SN12C
  GI50: 4.82 µM (inactive)
T47D
  GI50: 8.05 µM (inactive)
TK-10
  GI50: 8.36 µM (inactive)

## CS(=O)(=O)c1c(N)c2nc(Cl)cn2c2nc3ccccc3nc12
A549
  GI50: > 100 µM (inactive)
CCRF-CEM
  GI50: > 100 µM (inactive)
DMS-273
  GI50: > 100 µM (inactive)
HCT-15
  GI50: > 100 µM
K562
  GI50: > 100 µM (inactive)
MOLT-4
  GI50: > 100 µM (inactive)
Malme-3M
  GI50: > 100 µM (inactive)
NCI-H460
  GI50: > 100 µM (inactive)
NCI-H522
  GI50: 48 µM (inactive)
OVCAR-8
  GI50: 57.8 µM (inactive)
SK-MEL-2
  GI50: > 100 µM (inactive)
SK-OV-3
  GI50: > 100 µM (inactive)
SN12C
  GI50: > 100 µM (inactive)

## CN(C)CCCNc1ccc2nnn3c4ccc(OC(=O)c5ccc([N+](=O)[O-])cc5)cc4c(=O)c1c23
A498
  GI50: 16.6 µM (inactive)
A549
  GI50: 1.28 µM (inactive)
BT-549
  GI50: 16.4 µM (inactive)
CCRF-CEM
  GI50: 0.849 µM (active)
HCT-15
  GI50: 2.72 µM
K562
  GI50: 2.86 µM (inactive)
MCF7
  GI50: 2.27 µM (inactive)
MDA-N
  GI50: 11 µM (inactive)
MOLT-4
  GI50: 0.408 µM (active)
Malme-3M
  GI50: 4.92 µM (inactive)
NCI-H460
  GI50: 0.467 µM (active)
NCI-H522
  GI50: 1.32 µM (inactive)
NCI/ADR-RES
  GI50: 8.2 µM (inactive)
OVCAR-8
  GI50: 2.26 µM (inactive)
SK-MEL-2
  GI50: 18.8 µM (inactive)
SK-OV-3
  GI50: 6.98 µM (inactive)
SN12C
  GI50: 3.05 µM (inactive)
T47D
  GI50: 24.2 µM (inactive)
TK-10
  GI50: 5.82 µM (inactive)

## CCCCCCCCCCCCC(O)C(=O)O (centres undefined)
A498
  GI50: > 100 µM (inactive)
A549
  GI50: > 100 µM (inactive)
BT-549
  GI50: > 100 µM (inactive)
CCRF-CEM
  GI50: > 100 µM (inactive)
HCT-15
  GI50: > 100 µM
K562
  GI50: > 100 µM (inactive)
MCF7
  GI50: > 100 µM (inactive)
MDA-N
  GI50: > 100 µM (inactive)
MOLT-4
  GI50: > 100 µM (inactive)
Malme-3M
  GI50: > 100 µM (inactive)
NCI-H460
  GI50: > 100 µM (inactive)
NCI-H522
  GI50: > 100 µM (inactive)
NCI/ADR-RES
  GI50: > 100 µM (inactive)
OVCAR-8
  GI50: > 100 µM (inactive)
SK-MEL-2
  GI50: > 100 µM (inactive)
SK-OV-3
  GI50: > 100 µM (inactive)
SN12C
  GI50: > 100 µM (inactive)
T47D
  GI50: > 100 µM (inactive)
TK-10
  GI50: > 100 µM (inactive)

## CN1C/C(=C\c2cccs2)C(=O)/C(=C/c2cccs2)C1
A498
  GI50: 19.7 µM (inactive)
A549
  GI50: 21.9 µM (inactive)
BT-549
  GI50: 21.4 µM (inactive)
CCRF-CEM
  GI50: 5.27 µM (inactive)
HCT-15
  GI50: 27.2 µM
K562
  GI50: 25.1 µM (inactive)
MCF7
  GI50: 15.7 µM (inactive)
MDA-N
  GI50: 15.6 µM (inactive)
MOLT-4
  GI50: 6.59 µM (inactive)
Malme-3M
  GI50: 40.1 µM (inactive)
NCI-H460
  GI50: 24.3 µM (inactive)
NCI-H522
  GI50: 75.2 µM (inactive)
NCI/ADR-RES
  GI50: 22.1 µM (inactive)
OVCAR-8
  GI50: 20 µM (inactive)
SK-MEL-2
  GI50: 20.8 µM (inactive)
SK-OV-3
  GI50: 33.2 µM (inactive)
SN12C
  GI50: 21.8 µM (inactive)
T47D
  GI50: 20.6 µM (inactive)
TK-10
  GI50: 38.1 µM (inactive)
